Some test systems named below: SNB-75; K562; M14; SF-268; UACC-257; HCC 2998; SK-MEL-2; A549; SK-MEL-5; OVCAR-5; SN12C; UO-31; SK-OV-3; KM12; ACHN; IGROV-1; U-251; PC-3; UACC-62.
Holding throughout (assay): DTP human tumour cell line panel, 48 h

Each structure is given as a SMILES string.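 Results reflect a 48-hour exposure of cells in 96-well plates to compound at five concentrations. The concentration for 50% growth inhibition is given as GI50.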 Calls of active or inactive are those of the source. No stated cut-off is given here; in the data, active = GI50 up to about 1.1 µM and inactive = higher. Square brackets hold non-standard residues; d marks the D form. Peptide text beside a SMILES is read from it. * marks the point of attachment. X26 = COC1=CC(=O)N(C(=O)[C@@H](O*)C(C)C)[C@H]1Cc1ccccc1; NMeV = CN[C@H](C(=O)O)C(C)C; Hexanoyl = CCCCCC(=O)*

On to `COc1ccc(Nc2nnc(CCCCCCCCc3nnc(Nc4ccc(OC)cc4)o3)o2)cc1`, for which the GI50 in the experiment on SNB-75, in the experiment with K562, in the experiment on M14, in the experiment with SF-268, in the experiment on UACC-257 and with HCC 2998 was > 100 µM (inactive) in each case. The GI50 with SK-MEL-2, with A549, in the experiment on SK-MEL-5, in the experiment on OVCAR-5, in the experiment on SN12C and with UO-31 was > 100 µM (inactive) each time. The GI50 in the experiment on SK-OV-3, in the experiment on KM12, in the experiment on ACHN, in the experiment with IGROV-1, with U-251 and in the experiment with PC-3 was > 100 µM (inactive) throughout.

As for `COc1ccc(-c2csc(Cc3nc4ccccc4c(=O)n3-c3ccc(Cl)cc3)n2)cc1`, the GI50 is > 100 µM (inactive) in the experiment on SNB-75; 14.6 µM (inactive) in the experiment on K562; 21.7 µM (inactive) in the experiment with M14; 27.5 µM (inactive) with SF-268; 51.1 µM (inactive) in the experiment on UACC-257; 29.9 µM (inactive) with HCC 2998. Besides, the GI50 in the experiment with SK-MEL-2 is 17.8 µM (inactive); with A549 it was 22.7 µM (inactive); with UACC-62 it was 18.5 µM (inactive); in the experiment with SK-MEL-5 it was 19.3 µM (inactive); with OVCAR-5, 23.9 µM (inactive); with UO-31, 34.6 µM (inactive). Further, the GI50 in the experiment on SK-OV-3 is > 100 µM (inactive); in the experiment on KM12, 31 µM (inactive); in the experiment with ACHN, 30.9 µM (inactive); in the experiment on IGROV-1, 32.7 µM (inactive); in the experiment with U-251, 32.2 µM (inactive); in the experiment with PC-3, 29.4 µM (inactive).

Consider `CCCCCC(=O)N[C@H](C(=O)N[C@H](C(=O)N(C)[C@H](C(=O)N1CCC[C@H]1C(=O)N1CCC[C@H]1C(=O)O[C@H](C(=O)N1C(=O)C=C(OC)[C@@H]1Cc1ccccc1)C(C)C)C(C)C)C(C)C)C(C)C` (Hexanoyl-VV[NMeV]PP-X26), for which the GI50 with SNB-75 is 19 µM (inactive); in the experiment on K562 it was 71.1 µM (inactive); in the experiment with SF-268, > 100 µM (inactive); in the experiment with UACC-257, 87.7 µM (inactive); in the experiment with HCC 2998 it was > 100 µM (inactive); in the experiment with SK-MEL-2 it was 36.3 µM (inactive). Besides, the GI50 was 82.6 µM (inactive) in the experiment on UACC-62; 93.5 µM (inactive) with OVCAR-5; 94.6 µM (inactive) in the experiment on SN12C; 40 µM (inactive) in the experiment on UO-31; > 100 µM (inactive) in the experiment on SK-OV-3; > 100 µM (inactive) in the experiment on KM12. The GI50 in the experiment with ACHN is > 100 µM (inactive); with IGROV-1 it was > 100 µM (inactive); in the experiment with U-251, 43.8 µM (inactive); in the experiment with PC-3 it was 25.2 µM (inactive).

Consider `O=C1C=CC(=O)c2c1ccc1c3ccccc3n(CCCCCCCCn3c4ccccc4c4ccc5c(c43)C(=O)C=CC5=O)c21`, for which the GI50 in the experiment on K562, with M14, in the experiment on SF-268, with UACC-257, in the experiment with HCC 2998 and with SK-MEL-2 was > 100 µM (inactive) each time. Also, the GI50 with A549, in the experiment with UACC-62, in the experiment with SK-MEL-5, with OVCAR-5, in the experiment on SN12C and in the experiment with SK-OV-3 was > 100 µM (inactive) throughout. The GI50 in the experiment with KM12, with ACHN, in the experiment with IGROV-1, with U-251 and in the experiment with PC-3 was > 100 µM (inactive) each time.

For `OCC1OC(n2cnc3c(Cl)nc(Nc4ccc(Cl)c(Cl)c4)nc32)CC1O` (configuration not stated), the GI50 in the experiment on SNB-75 was 15.7 µM (inactive); in the experiment on K562, 8.63 µM (inactive); in the experiment with M14, 10.7 µM (inactive); in the experiment on SF-268, 12.7 µM (inactive); with UACC-257 it was 9.48 µM (inactive); in the experiment with HCC 2998 it was 7.8 µM (inactive). For the same compound, the GI50 in the experiment on SK-MEL-2 was 9.53 µM (inactive); in the experiment on A549 it was 14.2 µM (inactive); in the experiment on UACC-62 it was 8.73 µM (inactive); with SK-MEL-5, 8.34 µM (inactive); in the experiment on OVCAR-5, 13.8 µM (inactive); with SN12C, 10.5 µM (inactive). The GI50 in the experiment with UO-31 was 11.6 µM (inactive); in the experiment on SK-OV-3 it was 13.6 µM (inactive); in the experiment on KM12, 8.83 µM (inactive); in the experiment with ACHN it was 8.69 µM (inactive); in the experiment with IGROV-1, 11.9 µM (inactive); in the experiment on U-251, 10.2 µM (inactive). In addition, the GI50 in the experiment with PC-3 was 9.57 µM (inactive).

As to `COc1ccc(Nc2nc3ccc(C(F)(F)F)cc3nc2C(=O)O)cc1`, the GI50 in the experiment with SNB-75 was 34.1 µM (inactive); in the experiment with K562, 29.9 µM (inactive); with M14, 36.4 µM (inactive); in the experiment on SF-268 it was 37.7 µM (inactive); with UACC-257, 32.6 µM (inactive); in the experiment with HCC 2998 it was 24 µM (inactive). Moreover, the GI50 in the experiment with SK-MEL-2 is 43.9 µM (inactive); in the experiment on A549 it was 29.4 µM (inactive); in the experiment with UACC-62 it was 19.1 µM (inactive); in the experiment on SK-MEL-5, 26.5 µM (inactive); in the experiment on OVCAR-5, 28.2 µM (inactive); in the experiment on SN12C it was 30.3 µM (inactive). In addition, the GI50 in the experiment with SK-OV-3 was 20.4 µM (inactive); in the experiment with KM12, 23.5 µM (inactive); in the experiment with IGROV-1, 17.1 µM (inactive); in the experiment with U-251, 32.1 µM (inactive); with PC-3, 29.6 µM (inactive).

As for `CN(C)c1ccc(/C=c2/c3ccccc3n3c2cc(C24CC5CC(CC(C5)C2)C4)[n+]3C)cc1`, the GI50 in the experiment on SNB-75 was 0.394 µM (active); with K562 it was 0.0998 µM (active); with M14, 0.32 µM (active); in the experiment on SF-268 it was 0.555 µM (active); in the experiment on UACC-257 it was 0.251 µM (active); with HCC 2998, 0.353 µM (active). The 50% growth inhibitory concentration (GI50) in the experiment with SK-MEL-2 was 0.313 µM (active); in the experiment with A549 it was 0.205 µM (active); with UACC-62, 0.345 µM (active); with SK-MEL-5 it was 0.158 µM (active); with OVCAR-5 it was 0.409 µM (active); in the experiment with SN12C, 0.324 µM (active). For the same compound, the GI50 was 0.29 µM (active) with UO-31; 0.377 µM (active) with SK-OV-3; 0.156 µM (active) in the experiment with KM12; 0.23 µM (active) in the experiment with ACHN; 0.127 µM (active) in the experiment on IGROV-1; 0.0664 µM (active) in the experiment on U-251. The 50% growth inhibitory concentration (GI50) in the experiment with PC-3 is 0.125 µM (active).

Turning to `CC(=O)OCC1OC(OC2CC3C(C)(C)C(O)CC[C@]3(C)C3CCC45CC4(CCC5[C@@H](C)CC(O)C(O)C(C)(C)O)[C@]23C)C(O)C(O)C1O` (some centres not stated), the GI50 in the experiment with SNB-75, in the experiment with K562, with M14, in the experiment with SF-268, with UACC-257 and in the experiment with HCC 2998 was > 10 µM (inactive) in each case. In addition, the GI50 with SK-MEL-2, with A549, in the experiment on UACC-62, in the experiment with SK-MEL-5, in the experiment with OVCAR-5 and in the experiment on SN12C was > 10 µM (inactive) in each case. In addition, the GI50 in the experiment with UO-31, in the experiment on SK-OV-3, in the experiment with KM12, in the experiment on ACHN, with IGROV-1 and with U-251 was > 10 µM (inactive) throughout. In addition, the GI50 with PC-3 is > 10 µM (inactive).

As for `O=C1C=C(c2c(-c3ccccc3)[nH]c3ccccc23)C(=O)N1c1ccccc1`, the GI50 in the experiment with K562 is 7.41 µM (inactive); in the experiment with M14, 11.4 µM (inactive); in the experiment on SF-268, 4.63 µM (inactive); in the experiment on UACC-257 it was 9.25 µM (inactive); in the experiment on HCC 2998, 7.94 µM (inactive); with SK-MEL-2, 12.5 µM (inactive). Further, the GI50 was 14.6 µM (inactive) with A549; 10.7 µM (inactive) in the experiment with UACC-62; 8.75 µM (inactive) in the experiment on SK-MEL-5; 14.8 µM (inactive) in the experiment on OVCAR-5; 6.65 µM (inactive) in the experiment with SN12C; 13.9 µM (inactive) with UO-31. The GI50 in the experiment on SK-OV-3 is 24.8 µM (inactive); in the experiment with ACHN, 13.9 µM (inactive); in the experiment with IGROV-1, 14.5 µM (inactive); in the experiment on U-251 it was 13.5 µM (inactive); with PC-3, 7.78 µM (inactive).

Consider `O=C(COc1ccc(OCC(=O)N2C(=O)CC/C2=N\c2ccc(Cl)cc2)cc1)N1C(=O)CS/C1=N\c1ccc(Cl)cc1`, for which the GI50 is 18.5 µM (inactive) with SNB-75; 66.4 µM (inactive) with K562; 89.7 µM (inactive) in the experiment on M14; > 100 µM (inactive) with SF-268; 56 µM (inactive) with UACC-257; > 100 µM (inactive) in the experiment on HCC 2998. Also, the GI50 was > 100 µM (inactive) in the experiment on SK-MEL-2; 26.4 µM (inactive) in the experiment on A549; > 100 µM (inactive) in the experiment on UACC-62; 76 µM (inactive) in the experiment with SK-MEL-5; > 100 µM (inactive) in the experiment on OVCAR-5; > 100 µM (inactive) in the experiment on SN12C. The GI50 in the experiment on UO-31 was 37.2 µM (inactive); in the experiment with SK-OV-3, > 100 µM (inactive); in the experiment with KM12, 75.2 µM (inactive); in the experiment with ACHN, 49.8 µM (inactive); in the experiment with IGROV-1, 47.6 µM (inactive); in the experiment with U-251 it was 29.5 µM (inactive). Further, in the experiment on PC-3, the GI50 was 47.1 µM (inactive).

Turning to `CC1=NNC(=O)C1C1CC(c2c[nH]c3ccccc23)=NN(c2ccccc2)C1=O` (configuration not stated), the GI50 was > 100 µM (inactive) in the experiment with SNB-75; 35 µM (inactive) in the experiment on K562; 66.4 µM (inactive) with M14; > 100 µM (inactive) in the experiment on SF-268; > 100 µM (inactive) in the experiment on UACC-257; > 100 µM (inactive) in the experiment on SK-MEL-2. The GI50 in the experiment with A549 is > 100 µM (inactive); with UACC-62 it was > 100 µM (inactive); in the experiment with SK-MEL-5, > 100 µM (inactive); in the experiment with OVCAR-5 it was > 100 µM (inactive); in the experiment with SN12C, 50.5 µM (inactive); with UO-31, > 100 µM (inactive). Besides, the GI50 in the experiment on SK-OV-3 was > 100 µM (inactive); with KM12 it was > 100 µM (inactive); in the experiment on ACHN, > 100 µM (inactive); in the experiment on IGROV-1, 1.62 µM (inactive); in the experiment with U-251, 87.5 µM (inactive); in the experiment on PC-3 it was > 100 µM (inactive).

The term GI50 denotes the concentration at which growth is held to half of that of the control.

For the origin of these results see ChEMBL document CHEMBL1201862, “PubChem BioAssay data set” (2004).
